Experiments:
Type in all cases: in vivo
Solanum nigrum (SOLNI) [1] = assay: Post-emergence herbicidal glasshouse test on Solanum nigrum; conditions: post-emergence, 1000 g/h, evaluated after 13 days
Method in brief: (§1)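 Scored on a five-point scale (1 = 0-19% to 5 = 80-100% damage) 13 days after treatment. Application rate 1000 g/h in acetone/water (50:50) containing 0.5% Tween 20, sprayed one day post-sowing for pre-emergence or eight days for post-emergence; glasshouse at 24/16° C, 14 h light, 65% humidity.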

[2] = test system: Amaranthus retoflexus (AMARE); assay: Pre-emergence herbicidal glasshouse test on Amaranthus retoflexus; conditions: pre-emergence, 1000 g/h, evaluated after 13 days
Method in brief: as §1

Solanum nigrum (SOLNI) [3] = assay: Pre-emergence herbicidal glasshouse test on Solanum nigrum; conditions: pre-emergence, 1000 g/h, evaluated after 13 days
Method in brief: as §1

[4] = test system: Echinochloa crus-galli (ECHCG); assay: Pre-emergence herbicidal glasshouse test on Echinochloa crus-galli; conditions: pre-emergence, 1000 g/h, evaluated after 13 days
Method in brief: as §1

[5] = test system: Amaranthus retoflexus (AMARE); assay: Post-emergence herbicidal glasshouse test on Amaranthus retoflexus; conditions: post-emergence, 1000 g/h, evaluated after 13 days
Method in brief: as §1

[6] = test system: Echinochloa crus-galli (ECHCG); assay: Post-emergence herbicidal glasshouse test on Echinochloa crus-galli; conditions: post-emergence, 1000 g/h, evaluated after 13 days
Method in brief: as §1

Setaria faberi (SETFA) [7] = assay: Pre-emergence herbicidal glasshouse test on Setaria faberi; conditions: pre-emergence, 1000 g/h, evaluated after 13 days
Method in brief: as §1

Setaria faberi (SETFA) [8] = assay: Post-emergence herbicidal glasshouse test on Setaria faberi; conditions: post-emergence, 1000 g/h, evaluated after 13 days
Method in brief: as §1

[9] = test system: Alopecurus myosuroides (ALOMY); assay: Post-emergence herbicidal glasshouse test on Alopecurus myosuroides; conditions: post-emergence, 1000 g/h, evaluated after 13 days
Method in brief: as §1

[10] = test system: Ipomoea hederacea (IPOHE); assay: Pre-emergence herbicidal glasshouse test on Ipomoea hederacea; conditions: pre-emergence, 1000 g/h, evaluated after 13 days
Method in brief: as §1

[11] = test system: Ipomoea hederacea (IPOHE); assay: Post-emergence herbicidal glasshouse test on Ipomoea hederacea; conditions: post-emergence, 1000 g/h, evaluated after 13 days
Method in brief: as §1

[12] = test system: Alopecurus myosuroides (ALOMY); assay: Pre-emergence herbicidal glasshouse test on Alopecurus myosuroides; conditions: pre-emergence, 1000 g/h, evaluated after 13 days
Method in brief: as §1

SMILES	POST Application SOLNI herbicidal damage (five point scale) (Solanum nigrum (SOLNI) [1])	PRE Application AMARE herbicidal damage (five point scale) [2]	PRE Application SOLNI herbicidal damage (five point scale) (Solanum nigrum (SOLNI) [3])	PRE Application ECHCG herbicidal damage (five point scale) [4]	POST Application AMARE herbicidal damage (five point scale) [5]	POST Application ECHCG herbicidal damage (five point scale) [6]	PRE Application SETFA herbicidal damage (five point scale) (Setaria faberi (SETFA) [7])	POST Application SETFA herbicidal damage (five point scale) (Setaria faberi (SETFA) [8])	POST Application ALOMY herbicidal damage (five point scale) [9]	PRE Application IPOHE herbicidal damage (five point scale) [10]	POST Application IPOHE herbicidal damage (five point scale) [11]	PRE Application ALOMY herbicidal damage (five point scale) [12]	further results
Cn1ncc(-n2ccc(O)c(C#N)c2=O)c(O)c1=O [Compound 1.066]	3 (3=40-59% damage)	4 (4=60-79% damage)	4 (4=60-79% damage)	2 (2=20-39% damage)	1 (1=0-19% damage)	1 (1=0-19% damage)	1 (1=0-19% damage)	1 (1=0-19% damage)	2 (2=20-39% damage)	5 (5=80-100% damage)	2 (2=20-39% damage)	3 (3=40-59% damage)	–
CC(=O)Oc1c(-c2ccc(C(F)(F)F)cc2S(C)(=O)=O)cnn(C)c1=O [Compound 3.001, [2-methyl-5-[2-methylsulfonyl-4-(trifluoromethyl)phenyl]-3-oxo-pyridazin-4-yl]acetate]	5 (5=80-100% damage)	5 (5=80-100% damage)	5 (5=80-100% damage)	5 (5=80-100% damage)	5 (5=80-100% damage)	5 (5=80-100% damage)	5 (5=80-100% damage)	5 (5=80-100% damage)	5 (5=80-100% damage)	5 (5=80-100% damage)	5 (5=80-100% damage)	5 (5=80-100% damage)	–
Cc1ccc(Cl)c(-c2cnn(C)c(=O)c2O)c1 [Compound 1.101]	1 (1=0-19% damage)	1 (1=0-19% damage)	1 (1=0-19% damage)	1 (1=0-19% damage)	1 (1=0-19% damage)	1 (1=0-19% damage)	1 (1=0-19% damage)	1 (1=0-19% damage)	1 (1=0-19% damage)	1 (1=0-19% damage)	1 (1=0-19% damage)	1 (1=0-19% damage)	–
Cc1nc2nc(C(F)(F)F)c(-c3cnn(C)c(=O)c3O)cc2cc1F [Compound 1.151]	–	–	–	–	–	–	–	–	–	–	–	–	herbicidal damage, POST Application SOLNI (Solanum nigrum (SOLNI) [1]; five point scale): 5 (5=80-100% damage); herbicidal damage, PRE Application AMARE ([2]; five point scale): 5 (5=80-100% damage); herbicidal damage, PRE Application SOLNI (Solanum nigrum (SOLNI) [3]; five point scale): 4 (4=60-79% damage); herbicidal damage, PRE Application ECHCG ([4]; five point scale): 5 (5=80-100% damage); herbicidal damage, POST Application AMARE ([5]; five point scale): 5 (5=80-100% damage); herbicidal damage, POST Application ECHCG ([6]; five point scale): 5 (5=80-100% damage); herbicidal damage, PRE Application SETFA (Setaria faberi (SETFA) [7]; five point scale): 2 (2=20-39% damage); herbicidal damage, POST Application SETFA (Setaria faberi (SETFA) [8]; five point scale): 5 (5=80-100% damage); herbicidal damage, POST Application ALOMY ([9]; five point scale): 5 (5=80-100% damage); herbicidal damage, PRE Application IPOHE ([10]; five point scale): 5 (5=80-100% damage); herbicidal damage, POST Application IPOHE ([11]; five point scale): 5 (5=80-100% damage); herbicidal damage, PRE Application ALOMY ([12]; five point scale): 2 (2=20-39% damage)
Cc1ccc(-c2cnn(C)c(=O)c2O)c(Cl)c1 [Compound 1.098]	3 (3=40-59% damage)	1 (1=0-19% damage)	1 (1=0-19% damage)	1 (1=0-19% damage)	2 (2=20-39% damage)	1 (1=0-19% damage)	1 (1=0-19% damage)	1 (1=0-19% damage)	1 (1=0-19% damage)	1 (1=0-19% damage)	2 (2=20-39% damage)	1 (1=0-19% damage)	–
COc1ccc(-c2c(C(F)(F)F)ccn(-c3cnn(C)c(=O)c3O)c2=O)cc1 [Compound 7.033]	5 (5=80-100% damage)	5 (5=80-100% damage)	5 (5=80-100% damage)	5 (5=80-100% damage)	5 (5=80-100% damage)	5 (5=80-100% damage)	5 (5=80-100% damage)	5 (5=80-100% damage)	5 (5=80-100% damage)	4 (4=60-79% damage)	3 (3=40-59% damage)	5 (5=80-100% damage)	–
Cn1ncc(-c2ccc(Cl)cc2[S+](C)[O-])c(O)c1=O (stereo not drawn) [Compound 1.059]	5 (5=80-100% damage)	5 (5=80-100% damage)	5 (5=80-100% damage)	5 (5=80-100% damage)	5 (5=80-100% damage)	5 (5=80-100% damage)	5 (5=80-100% damage)	5 (5=80-100% damage)	5 (5=80-100% damage)	5 (5=80-100% damage)	5 (5=80-100% damage)	5 (5=80-100% damage)	–
Cn1ncc(-n2ccc(C(F)(F)F)c(N3CCOCC3)c2=O)c(O)c1=O [Compound 1.026]	5 (5=80-100% damage)	5 (5=80-100% damage)	5 (5=80-100% damage)	5 (5=80-100% damage)	5 (5=80-100% damage)	5 (5=80-100% damage)	5 (5=80-100% damage)	5 (5=80-100% damage)	5 (5=80-100% damage)	5 (5=80-100% damage)	5 (5=80-100% damage)	5 (5=80-100% damage)	–

Reference: patent US9693556B2, “Herbicidal pyridazinone derivatives” (SYNGENTA LIMITED, priority 2011, dated 2017)
